{
  "source": "patent US11369618B2",
  "about": "“Compounds, compositions and methods for prevention and/or treatment of cancer” (THE TRUSTEES OF THE UNIVERSITY OF PENNSYLVANIA, priority 2016, dated 2022)",
  "key": {"[1]": {"system": "pRB, c-myc and GPER in WM46 melanoma cells", "assay": "Western blot of WM46 melanoma cells treated with increasing doses of G-1", "assay_type": "cell-based, human", "conditions": "WM46, increasing concentrations"}, "[2]": {"system": "Melanoma cells engineered to maintain c-Myc protein", "assay": "c-Myc-transduced WM46 melanoma cells treated with G-1", "assay_type": "cell-based, human", "conditions": "c-Myc-transduced WM46, 16 hours", "method": "FIG. 12 illustrates the finding that GPER signaling results in loss of c-Myc in melanoma. Panels A-C: Western blots of heMel (Panel A), WM46 (Panel B), and B16F10 (Panel C) melanoma transiently treated with E2 for 3 days, followed by 4 day withdraw. Panel D: Western blot of WM46 cells treated with a specific GPER agonist (G-1) for 16 hours. Panel E: Western blot of luciferase- or c-Myc-transduced WM46 cells treated with G-1 for 16 hours. Panel F: Western blot of WM46 cells treated with G-1 across a time course. Panel G: Western blot of WM46 cells treated with G-1, 100 μM PKA inhibitor Rp-8-Br-cAMPS (PKAi), or both for 1 hour. Panel H: Western blot of WM46 cells treated with G-1, […] proteasome inhibitor (MG132), or both for 1 hour. Panel I: Western blot of WM46 cells treated with 10 μg/ml cyclohexamide (CHX) with and without G-1.\nFurthermore, GPER signaling induced a relative growth arrest, associated with hypophosphorylation of Rb in both mouse and human melanoma cells (FIG. 12, Panel D)."}, "[3]": {"system": "tumor infiltrating immune cells", "assay": "immune profiling of tumors in YUMM 1.7 melanoma bearing mice", "assay_type": "in vivo, mouse", "description": "FIGS. 15A-15C illustrate the finding that G-1 treatment in vivo alters tumor infiltrating immune cells. […] FIG. 15B: Heatmap summarizing immune profiling across biological replicates, n=5 per group, * denotes significance by two-way ANOVA assuming each immune population is an independent measurement of immune activation. FIG. 15C: Quantification of individual immune populations from FIG. 15B, n=5 per group."}, "[4]": {"system": "mouse and human melanoma cell lines (B16F10, WM46, WM51, WM3702)", "assay": "proliferation assay of mouse and human melanoma cell lines in vitro", "assay_type": "cell-based", "conditions": "estrogen 25 nM E2, G-1 100 nM, vs delivery vehicle", "description": "(§1) FIGS. 4A-4F illustrate the finding that GPER signaling slows proliferation and drives differentiation in mouse and human melanoma. FIG. 4A: 5 day proliferation assay of B16F10, WM46 (BRAF^V600E), WM51 (BRAF^V600E), and WM3702 (NRAS^Q61L) cells treated with estrogen (E2), * denotes significance by a two-tailed T-test, n=3 per group. FIG. 4B: 5 day melanin assay of B16F10, WM46 (BRAF^V600E), WM51 (BRAF^V600E), and WM3702 (NRAS^Q61L) cells treated with E2, * denotes significance by a two-tailed T-test, n=3 per group. FIG. 4C: 5 day proliferation assay of B16F10, WM46 (BRAF^V600E), WM51 (BRAF^V600E) and WM3702 (NRAS^Q61L) cells treated with GPER agonist (G-1), * denotes significance by a two-tailed T-test, n=3 per group. FIG. 4D: 5 day melanin assay of B16F10, WM46 (BRAF^V600E), WM51 (BRAF^V600E), and WM3702 (NRAS^Q61L) cells treated with G-1, * denotes significance by a two-tailed T-test, n=3 per group. FIG. 4E: 3 day proliferation assay of B16F10 cells treated with a dose response of G-1, * denotes significance One-way ANOVA with Tukey's multiple comparison test, n=5 per group. FIG. 4F: Western blot of B16F10 cells treated for 16 hours with a saturating dose response of G-1. […]\n(§2) Tumor cell proliferation slowed in both mouse and human melanoma cells following treatment with estrogen or G-1, a specific GPER agonist. […] Cell proliferation and differentiation (melanin production) were measured."}, "[5]": {"system": "mouse and human melanoma cell lines (B16F10, WM46, WM51, WM3702)", "assay": "melanin assay (differentiation) of mouse and human melanoma cell lines in vitro", "assay_type": "cell-based", "conditions": "estrogen 25 nM E2, G-1 100 nM, vs delivery vehicle", "description": "as §1, §2"}, "B16F10 melanoma cells": {"system": "B16F10 melanoma cells", "assay": "melanoma cells treated with G-1, HDACi, or in combination (Western blot, B16F10 proliferation assay)", "assay_type": "cell-based", "description": "FIG. 16B: Western blot of p-RB, c-Myc, and H3K56ac in melanoma cells after treatment with G-1, HDACi, or in combination. FIG. 16C: Proliferation assay of B16F10 melanoma cells after treatment with G-1, HDACi, or in combination.\nHistone acetyl marks are removed by several histone deacetylases (HDACs), which are aberrantly regulated in many cancers. Although HDAC inhibitors are approved as anticancer agents for cutaneous lymphoma, myeloma, and […], their utility in melanoma is unclear. […] HDAC efficacy may have been limited by the fact that trials were conducted without a differentiation driver to promote formation of acetylation marks on histones or other critical oncoproteins (such as c-Myc) that would then be stabilized by the HDACi. Without wishing to be limited by any theory, the anticancer effects of HDAC inhibitors can be potentiated by combination drug regimens that also promote histone acetylation at functionally critical sites. HDACi and GPER agonists independently promote melanoma cell differentiation, and also cooperate to potentiate the activity of each other (FIGS. 16B-16C)."}, "B16F10 melanoma": {"system": "B16F10 melanoma", "assay": "B16F10 melanoma-bearing syngeneic mice treated with subcutaneous G-1, αPD-1 antibody, or both", "assay_type": "in vivo", "description": "FIGS. 14A-14F illustrate the finding that treatment of melanoma bearing mice with G-1 and αPD-1 immunotherapy dramatically extends survival. FIG. 14A: Experimental timeline of B16F10 bearing mice treated with vehicle or G-1, as well as αPD-1 antibody or isotype antibody control (2A3), n=10 per group. FIG. 14B: Tumor volumes of treatment groups at Day 14, * denotes significance One-way ANOVA with Tukey's multiple comparison test. FIG. 14C: Survival curve of mice treated with vehicle or G-1, as well as isotype antibody control (2A3) or αPD-1 antibody. FIG. 14D: Experimental outline of YUMM1.7 bearing mice treated with vehicle or G-1, as well as isotype antibody control (2A3) or αPD-1 antibody. Treatment was started at day 14 after tumors reached 4-5 mm in diameter. n=5 per group. FIG. 14E: Tumor volumes over time of treatment groups. FIG. 14F: Survival curve of mice treated with vehicle or G-1, as well as αPD-1 antibody or isotype antibody control (2A3).\nTo determine whether G-1 has therapeutic utility as a systemically delivered agent with or without immune checkpoint inhibitors, B16F10 melanoma-bearing syngeneic mice were treated with subcutaneous G-1, αPD-1 antibody, or both, and survival compared to matched mice treated with vehicle and isotype antibody controls (in particular, non-specific isotype control antibody 2A3) (FIG. 14A). Total tumor volume was assessed after 5-50 days."}},
  "data": [
    {"smiles": "CC(=O)c1ccc2c(c1)[C@@H]1C=CC[C@@H]1[C@H](c1cc3c(cc1Br)OCO3)N2", "note": "(relative stereo) [Compound G-1, rel-1-[4-(6-bromo-1,3-benzodioxol-5-yl)-3aR,4S,5,9bS-tetrahydro-3H-cyclopenta[c]quinolin-8-yl]-ethanone]", "values": [
      {"measurement": "GPER expression", "setting": "[1]", "result": "elevation"},
      {"measurement": "c-myc levels", "setting": "[1]", "result": "reduction"},
      {"measurement": "pRB levels", "setting": "[1]", "result": "reduction"},
      {"measurement": "response of cells engineered to maintain c-Myc protein", "setting": "[2]", "result": "resistant"},
      {"measurement": "tumor infiltrating immune cell subsets", "setting": "[3]", "result": "increased several immune cell subsets, including T cells and NK cells"},
      {"measurement": "melanoma cell proliferation", "setting": "[4]", "result": "slowed melanoma cell proliferation"},
      {"measurement": "differentiation (melanin production)", "setting": "[5]", "result": "drove differentiation"},
      {"measurement": "combined effect of G-1 and HDACi in melanoma cells", "setting": "B16F10 melanoma cells", "result": "synergizes with HDAC inhibitors"},
      {"measurement": "tumor growth", "setting": "B16F10 melanoma; B16F10-bearing mice", "result": "slowed tumor growth"},
      {"measurement": "survival", "setting": "B16F10 melanoma; B16F10-bearing mice, subcutaneous G-1", "result": "extended survival to the same extent as αPD-1"},
      {"measurement": "tolerability", "setting": "B16F10 melanoma; mice", "result": "well tolerated"}
    ]}
  ]
}
